From ChEMBL document CHEMBL5120836, “Discovery of novel 7,8-dihydropteridine-6(5H)-one-based DNA-PK inhibitors as potential anticancer agents via scaffold hopping strategy” (Eur J Med Chem, 2022)

Assays:
[1] = Toxicity in BALB/c nude mouse xenografted with human HL-60 cells assessed as serum RBC content at 100 mg/kg, po qd for 16 days (reference value: 10.375X10^12/L); type: organism-based, Erythrocyte; conditions: in vivo, 384 h, time 16 day
[2] = tested on: HCT-116; assay: Synergistic antiproliferative activity against human HCT-116 cells assessed as combination index at 100 uM incubated for 48 hrs in presence of 0.1 to 50 uM doxorubicin by MTT assay; type: functional
[3] = MRT (0 to infinity) in Sprague-Dawley rat at 5 mg/kg, po; type: ADME, organism-based; conditions: in vivo
[4] = tested on: HL-60; assay: Synergistic antitumor activity against human HL-60 cells xenografted in BALB/c nude mouse assessed as tumor volume at 100 mg/kg, po qd for 16 days co-administered with doxorubicin (reference value: 32.2%); type: functional; conditions: HL-60, 384 h, time 16 day
[5] = tested on: HepG2; assay: Synergistic antiproliferative activity against Doxorubicin-resistant human HepG2 cells assessed as combination index at 50 uM in presence of 0.1 uM doxorubicin by MTT assay; type: functional

- MRT inf [3]: 2.29 h
Compound: Cc1cc2ncnn2cc1Nc1ncc2c(n1)N(C1CCOCC1)CC(=O)N2C
- Activity [1]: 10.315 10^12/L
- CI [2]: <0.1
- inhibition in vivo at 100 mg/kg [4]: 62.4%
- CI [5]: 0.09496
